Results from patent US11866430B2, “Naphthyridinone compounds useful as T cell activators” (priority 2018, dated 2024).

How the values were obtained:
human DGKα = human DGKα (Homo sapiens (Human), UniProt P23743); test: DGKα LIPGLO assay (extruded liposome substrate); assay type: biochemical
Summary of the method: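 Human full-length DGKα, His-tagged and produced in Sf9 cells, assayed at 20 nM (4× stock) on extruded liposomes of PS, 0.25 mM DAG and 2.75 mM PC, preincubated 10 min. Reaction started with 300 μM ATP (stock) and ran 1 h in MOPS pH 7.5/MgCl2/CaCl2/DTT buffer.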

human DGKζ = human DGKζ (Homo sapiens (Human), UniProt Q13574); test: DGKζ LIPGLO assay (extruded liposome substrate); assay type: biochemical; conditions: extruded liposome substrate; read-out: DGKζ LIPGLO IC50
Summary of the method: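 Recombinant DGKζ (Sf9-expressed, Ni/SEC/SP-purified) preincubated 10 min with extruded 100 nm PC/DAG/PS liposomes in 50 mM MOPS pH 7.5, 100 mM NaCl, 10 mM MgCl2, 1 μM CaCl2, 1 mM DTT. Started with 300 uM ATP solution (stock, pre-addition); 1 hr reaction. ADP-Glo luminescence; IC50 from 11 concentrations.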

naïve human CD8 T cells = test: cells; conditions: Homo sapiens, T-cell, read-out: HuCD8 INFG Normalized EC50, anti-CD3 plus anti-CD28 as baseline; 3 μM Example 40 co-stimulation as 100% activation
Method: Frozen naïve human CD8 T cells were thawed in ATM-V media, incubated for 2 h in 37° C., and counted. The 384-well tissue culture plate was coated overnight at 4° C. with 20 μl anti-human CD3 at 0.05 μg/mL in PBS, which was removed off the plate before 40,000 cells per 40 microliters CD8 T cells with 0.1 μg/mL soluble anti-human CD28 were added to each well. The compounds were transferred using an Echo liquid handler to the cell plate immediately after the cells were plated. After 20 h incubation at 37° C. incubator, 3 microliters per well supernatants transferred into a new 384-well white assay plate for cytokine measurement.
Interferon-γ (IFN-γ) was quantitated using the AlphaLISA kit (Cat #AL217) as described by the manufacturer manual (Perkin Elmer). The counts from each well were converted to IFN-γ concentration […].

Sequence of human DGKζ (Q13574 other isoform, or with tags, fused parts or gaps): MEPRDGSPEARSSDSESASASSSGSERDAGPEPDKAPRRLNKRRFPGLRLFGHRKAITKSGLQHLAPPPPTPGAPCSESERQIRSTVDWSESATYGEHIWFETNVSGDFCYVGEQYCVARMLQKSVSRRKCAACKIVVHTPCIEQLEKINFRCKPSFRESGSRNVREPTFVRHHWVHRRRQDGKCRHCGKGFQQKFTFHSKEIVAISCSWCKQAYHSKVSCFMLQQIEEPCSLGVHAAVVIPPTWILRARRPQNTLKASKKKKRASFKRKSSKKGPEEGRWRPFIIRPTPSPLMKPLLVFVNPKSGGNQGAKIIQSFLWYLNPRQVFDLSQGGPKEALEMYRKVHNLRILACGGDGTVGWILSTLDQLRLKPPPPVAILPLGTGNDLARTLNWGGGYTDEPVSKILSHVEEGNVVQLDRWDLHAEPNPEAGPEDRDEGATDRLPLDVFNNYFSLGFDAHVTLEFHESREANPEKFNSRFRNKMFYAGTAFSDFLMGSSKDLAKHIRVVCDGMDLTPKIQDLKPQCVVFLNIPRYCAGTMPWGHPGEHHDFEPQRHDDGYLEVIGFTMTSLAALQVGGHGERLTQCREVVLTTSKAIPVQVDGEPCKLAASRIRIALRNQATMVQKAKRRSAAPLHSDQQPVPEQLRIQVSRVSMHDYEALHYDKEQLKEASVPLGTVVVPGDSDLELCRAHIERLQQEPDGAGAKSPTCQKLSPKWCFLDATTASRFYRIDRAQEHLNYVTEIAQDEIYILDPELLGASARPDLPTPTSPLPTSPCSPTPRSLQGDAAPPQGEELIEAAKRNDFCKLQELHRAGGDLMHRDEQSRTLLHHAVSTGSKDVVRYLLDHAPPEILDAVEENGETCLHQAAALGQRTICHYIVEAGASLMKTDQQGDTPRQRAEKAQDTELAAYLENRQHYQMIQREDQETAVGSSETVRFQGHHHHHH
Sequence of human DGKα (P23743 other isoform, or with tags, fused parts or gaps): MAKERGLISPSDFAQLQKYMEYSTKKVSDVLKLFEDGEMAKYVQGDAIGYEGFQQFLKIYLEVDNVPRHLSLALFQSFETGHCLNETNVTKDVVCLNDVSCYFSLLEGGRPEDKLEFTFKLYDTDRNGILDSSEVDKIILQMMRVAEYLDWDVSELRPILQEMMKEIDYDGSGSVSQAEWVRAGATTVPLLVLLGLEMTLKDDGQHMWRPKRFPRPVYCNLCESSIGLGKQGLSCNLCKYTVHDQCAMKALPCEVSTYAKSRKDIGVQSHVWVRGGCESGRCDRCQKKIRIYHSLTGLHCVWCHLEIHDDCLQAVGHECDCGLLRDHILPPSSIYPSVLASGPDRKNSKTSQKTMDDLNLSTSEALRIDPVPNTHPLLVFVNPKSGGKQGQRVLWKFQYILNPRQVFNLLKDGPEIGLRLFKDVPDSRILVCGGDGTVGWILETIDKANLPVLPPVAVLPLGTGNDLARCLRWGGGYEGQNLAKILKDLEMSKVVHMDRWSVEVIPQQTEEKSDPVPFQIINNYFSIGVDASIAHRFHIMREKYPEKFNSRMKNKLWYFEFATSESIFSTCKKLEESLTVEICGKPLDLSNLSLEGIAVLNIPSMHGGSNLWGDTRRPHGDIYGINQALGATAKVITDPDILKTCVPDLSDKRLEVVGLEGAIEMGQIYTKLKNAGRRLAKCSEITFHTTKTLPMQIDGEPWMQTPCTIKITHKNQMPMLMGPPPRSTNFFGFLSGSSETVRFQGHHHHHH

Structure (SMILES)	IC50 (human DGKα)	IC50 (human DGKζ)	EC50 (naïve human CD8 T cells)
COc1ccc2c(n1)c(N1CCN(C(c3ccc(F)cc3)c3cccnc3OC)CC1)c(C#N)c(=O)n2C (stereo not drawn) [Example 396, 4-{4-[(4-fluorophenyl)(2-methoxypyridin-3-yl)methyl]piperazin-1-yl}-6-methoxy-1-methyl-2-oxo-1,2-dihydro-1,5-naphthyridine-3-carbonitrile]	21 µM	5.8 µM	2.66 µM
COCCC(C)N1CCN(c2c(C#N)c(=O)n(C)c3ccc(C)nc23)CC1 (stereo not drawn) [Example 252, 4-[4-(4-methoxybutan-2-yl)piperazin-1-yl]-1,6-dimethyl-2-oxo-1,2-dihydro-1,5-naphthyridine-3-carbonitrile]	> 240 µM	200 µM	10 µM
COc1cccnc1C(c1ccc(F)cc1)N1CCN(c2c(C#N)c(=O)n(C)c3ccc(C#N)nc23)CC1 (stereo not drawn) [Example 410, 8-{4-[(4-fluorophenyl)(3-methoxypyridin-2-yl)methyl]piperazin-1-yl}-5-methyl-6-oxo-5,6-dihydro-1,5-naphthyridine-2,7-dicarbonitrile]	5.4 µM	2.2 µM	0.09 µM
Cn1c(=O)c(C#N)c(N2CCN(C(c3ccccc3)c3ccc(F)cc3)CC2)c2nc(C#N)ccc21 (stereo not drawn) [Example 411, 8-{4-[(4-fluorophenyl)(phenyl)methyl]piperazin-1-yl}-5-methyl-6-oxo-5,6-dihydro-1,5-naphthyridine-2,7-dicarbonitrile]	4.9 µM	1.4 µM	0.02 µM
Cn1c(=O)c(C#N)c(N2CCN(C(c3ccc(Cl)cc3)c3ccc(Cl)cc3)CC2)c2nc(C#N)ccc21 [Example 394, 8-{4-[bis(4-chlorophenyl)methyl]piperazin-1-yl}-5-methyl-6-oxo-5,6-dihydro-1,5-naphthyridine-2,7-dicarbonitrile]	3.9 µM	1.2 µM	0.01 µM
Cn1c(=O)c(C#N)c(N2CCN(C(c3ccccc3)c3ccc(Cl)cc3)CC2)c2nc(Br)ccc21 (racemic) [Example 429, 6-bromo-4-{4-[(4-chlorophenyl)(phenyl)methyl]piperazin-1-yl}-1-methyl-2-oxo-1,2-dihydro-1,5-naphthyridine-3-carbonitrile]	1.8 µM	9.4 µM	0.08 µM
Cn1c(=O)c(C#N)c(N2CCN(C(c3ccc(Cl)cc3)c3ccc(Cl)cc3)CC2)c2nc(Br)ccc21 [Example 393, 4-{4-[bis(4-chlorophenyl)methyl]piperazin-1-yl}-6-bromo-1-methyl-2-oxo-1,2-dihydro-1,5-naphthyridine-3-carbonitrile]	9 µM	> 240 µM	0.17 µM
Cc1ccc2c(n1)c(N1CCN(C(c3ccc(F)cc3)c3ccccn3)CC1)c(C#N)c(=O)n2C (stereo not drawn) [Example 256, 4-{4-[(4-fluorophenyl)(pyridin-2-yl)methyl]piperazin-1-yl}-1,6-dimethyl-2-oxo-1,2-dihydro-1,5-naphthyridine-3-carbonitrile]	2.7 µM	10 µM	0.24 µM
COc1ccc2c(n1)c(N1CCN(C(c3ccc(F)cc3)c3ccc(F)cc3OC)CC1)c(C#N)c(=O)n2C (single isomer, unassigned) [Example 413, 4-{4-[(4-fluoro-2-methoxyphenyl)(4-fluorophenyl)methyl]piperazin-1-yl}-6-methoxy-1-methyl-2-oxo-1,2-dihydro-1,5-naphthyridine-3-carbonitrile]	3.3 µM	0.97 µM	0.04 µM
COc1ccc2c(n1)c(N1CCN(C(c3ncccn3)c3ccc(F)cc3OC)CC1)c(C#N)c(=O)n2C (stereo not drawn) [Example 401, 4-{4-[(4-fluoro-2-methoxyphenyl)(pyrimidin-2-yl)methyl]piperazin-1-yl}-6-methoxy-1-methyl-2-oxo-1,2-dihydro-1,5-naphthyridine-3-carbonitrile]	81 µM	7.6 µM	10 µM
Cn1c(=O)c(C#N)c(N2CCN(C(c3ccccc3)c3ccc(F)cc3)CC2)c2nc(Br)ccc21 (racemic) [Example 430, 6-bromo-4-{4-[(4-fluorophenyl)(phenyl)methyl]piperazin-1-yl}-1-methyl-2-oxo-1,2-dihydro-1,5-naphthyridine-3-carbonitrile]	1.9 µM	3 µM	0.3 µM
COc1ccc2c(n1)c(N1CCN(C(c3ccc(F)cc3)c3ncccc3OC)CC1)c(C#N)c(=O)n2C (stereo not drawn) [Example 397, 4-{4-[(4-fluorophenyl)(3-methoxypyridin-2-yl)methyl]piperazin-1-yl}-6-methoxy-1-methyl-2-oxo-1,2-dihydro-1,5-naphthyridine-3-carbonitrile]	16 µM	13 µM	4.47 µM
Cn1c(=O)c(C#N)c(N2CCN([C@@H](c3ccccc3)c3ccc(Cl)cc3)CC2)c2nc(C#N)ccc21 [Example 414, 8-{4-[(S)-(4-chlorophenyl)(phenyl)methyl]piperazin-1-yl}-5-methyl-6-oxo-5,6-dihydro-1,5-naphthyridine-2,7-dicarbonitrile]	9 µM	1.5 µM	0.16 µM
COc1ccc2c(n1)c(N1CCN(C(c3ccc(F)cc3)c3ccccn3)CC1)c(C#N)c(=O)n2C (stereo not drawn) [Example 403, 4-{4-[(4-fluorophenyl)(pyridin-2-yl)methyl]piperazin-1-yl}-6-methoxy-1-methyl-2-oxo-1,2-dihydro-1,5-naphthyridine-3-carbonitrile]	26 µM	5.7 µM	1.49 µM
COc1cc(C)ccc1C(c1ccc(F)cc1)N1CCN(c2c([N+](=O)[O-])c(=O)n(C)c3ccc(C#N)nc23)CC1 (stereo not drawn) [Example 416, 8-{4-[(4-fluorophenyl)(2-methoxy-4-methylphenyl)methyl]piperazin-1-yl}-5-methyl-7-nitro-6-oxo-5,6-dihydro-1,5-naphthyridine-2-carbonitrile]	4.8 µM	0.91 µM	0.03 µM
COc1cc(F)ccc1C(c1ccc(F)cc1OC)N1CCN(c2c(C#N)c(=O)n(C)c3ccc(C)nc23)CC1 [Example 251, 4-{4-[bis(4-fluoro-2-methoxyphenyl)methyl]piperazin-1-yl}-1,6-dimethyl-2-oxo-1,2-dihydro-1,5-naphthyridine-3-carbonitrile]	> 240 µM	9 µM	0.58 µM
Cc1ccc2c(n1)c(N1CCN(C3CCOc4ccccc43)CC1)c(C#N)c(=O)n2C (stereo not drawn) [Example 253, 4-[4-(3,4-dihydro-2H-1-benzopyran-4-yl)piperazin-1-yl]-1,6-dimethyl-2-oxo-1,2-dihydro-1,5-naphthyridine-3-carbonitrile]	40 µM	7.4 µM	2.51 µM
COc1ccc2c(n1)c(N1CCN(C(c3ccc(F)cc3OC)c3ccc(F)cc3OC)CC1)c(C#N)c(=O)n2C [Example 402, 4-{4-[bis(4-fluoro-2-methoxyphenyl)methyl]piperazin-1-yl}-6-methoxy-1-methyl-2-oxo-1,2-dihydro-1,5-naphthyridine-3-carbonitrile]	160 µM	3.5 µM	1.78 µM
Cn1c(=O)c(C#N)c(N2CCN(C(c3ccc(F)cc3)c3ccccn3)CC2)c2nc(C#N)ccc21 (stereo not drawn) [Example 400, 8-{4-[(4-fluorophenyl)(pyridin-2-yl)methyl]piperazin-1-yl}-5-methyl-6-oxo-5,6-dihydro-1,5-naphthyridine-2,7-dicarbonitrile]	5.4 µM	2.1 µM	0.05 µM
